# Test results from ChEMBL document CHEMBL5050844 (2019).
# Assays:
# [1] = Induction of anti-CD3/CD28 antibodies-stimulated human T cell activation at 1 uM assessed fold increase in CD25 expression measured by ELISA assay; format: functional, T cell line
# [2] = Induction of activation of human CD56+ CD3- NK cells co-cultured with human K562 cells in 1:1 ratio and assessed as increase in IFN-gamma secretion at 0.625 uM measured by ELISA assay; format: functional, Natural killer cell
# [3] = Induction of anti-CD3/CD28 antibodies-stimulated human CD4+ T cell activation at 10 uM assessed fold increase in CD69 expression measured by flow cytometry analysis; format: functional, T cell line
# [4] = Induction of anti-CD3 antibodies-stimulated human CD8+ T cell activation at 10 uM assessed fold increase in CD69 expression measured by flow cytometry analysis; format: functional, T cell line; note: reference of the scale not given here
# [5] = Induction of allogenic human T cell activation at 3 uM assessed fold increase in cell proliferation; format: functional, T cell line
# [6] = Induction of anti-CD3 antibodies-stimulated human T cell activation at 1.11 uM assessed fold increase in IFN-gamma secretion measured by ELISA assay; format: functional, T cell line; note: reference of the scale not given here
# [7] = Induction of anti-CD3/CD28 antibodies-stimulated human T cell activation at 4 uM assessed fold increase in CD25 expression measured by ELISA assay; format: functional, T cell line
# [8] = Induction of anti-CD3/CD28 antibodies-stimulated human T cell activation at 10 uM assessed fold increase in TNF-alpha secretion measured by ELISA assay; format: functional, T cell line
# [9] = Induction of anti-CD3/CD28 antibodies-stimulated human CD8+ T cell activation at 10 uM assessed fold increase in CD69 expression measured by flow cytometry analysis; format: functional, T cell line
# [10] = Induction of anti-CD3/CD28 antibodies-stimulated human anergic T cell activation at 1.11 uM assessed fold increase in IFN-gamma secretion measured by ELISA assay; format: functional, T cell line
# [11] = Induction of activation of human CD56+ CD3- NK cells co-cultured with human K562 cells in 1:1 ratio and assessed as increase in IFN-gamma secretion at 10 uM measured by ELISA assay; format: functional, Natural killer cell
# [12] = Induction of anti-CD3 antibodies-stimulated human CD4+ T cell activation at 1.11 uM assessed fold increase in CD69 expression measured by flow cytometry analysis; format: functional, T cell line; note: reference of the scale not given here
# [13] = Induction of anti-CD3/CD28 antibodies-stimulated human anergic T cell activation at 0.37 uM assessed fold increase in IFN-gamma secretion measured by ELISA assay; format: functional, T cell line
# [14] = Induction of anti-CD3 antibodies-stimulated human T cell activation at 10 uM assessed fold increase in TNF-alpha secretion measured by ELISA assay; format: functional, T cell line; note: reference of the scale not given here
# [15] = Induction of anti-CD3/CD28 antibodies-stimulated human T cell activation at 1.11 uM assessed fold increase in TNF-alpha secretion measured by ELISA assay; format: functional, T cell line
# [16] = Induction of anti-CD3/CD28 antibodies-stimulated human CD4+ T cell activation at 1.11 uM assessed fold increase in CD69 expression measured by flow cytometry analysis; format: functional, T cell line
# [17] = Induction of anti-CD3/CD28 antibodies-stimulated human CD8+ T cell activation at 1.11 uM assessed fold increase in cell proliferation measured by flow cytometry analysis; format: functional, T cell line
# B cell = assay: Induction of anti-IgM-stimulated human CD20+ B cell activation at 10 to 1000 uM assessed as increase in CD69 expression measured as mean fluorescence intensity AUC by flow cytometry analysis; format: functional, cell-based; settings: dose 10-1000 µM
# [18] = Induction of anti-CD3/CD28 antibodies-stimulated human T cell activation at 4 uM assessed fold increase in IL-2 secretion measured by ELISA assay; format: functional, T cell line
# [19] = Induction of anti-CD3/CD28 antibodies-stimulated human T cell activation at 1 uM assessed fold increase in IL-2 secretion measured by ELISA assay; format: functional, T cell line
# [20] = Induction of activation of human CD56+ CD3- NK cells co-cultured with human K562 cells in 1:1 ratio and assessed as increase in TNF-alpha secretion at 0.625 uM measured by ELISA assay; format: functional, Natural killer cell
# [21] = Induction of anti-CD3/CD28 antibodies-stimulated human T cell activation at 1.11 uM assessed fold increase in GM-CSF secretion measured by ELISA assay; format: functional, T cell line
# [22] = Induction of anti-CD3 antibodies-stimulated human T cell activation at 8 uM assessed fold increase in CD25 expression measured by ELISA assay; format: functional, T cell line; note: reference of the scale not given here
# [23] = Induction of activation of human CD56+ CD3- NK cells co-cultured with human K562 cells in 1:1 ratio and assessed as increase in TNF-alpha secretion at 2.5 uM measured by ELISA assay; format: functional, Natural killer cell
# [24] = Induction of anti-CD3 antibodies-stimulated human T cell activation at 1.11 uM assessed fold increase in TNF-alpha secretion measured by ELISA assay; format: functional, T cell line; note: reference of the scale not given here
# [25] = Induction of anti-CD3/CD28 antibodies-stimulated human CD8+ T cell activation at 10 uM assessed fold increase in cell proliferation measured by flow cytometry analysis; format: functional, T cell line
# [26] = Induction of activation of human CD56+ CD3- NK cells co-cultured with human K562 cells in 1:1 ratio and assessed as increase in IFN-gamma secretion at 2.5 uM measured by ELISA assay; format: functional, Natural killer cell
# [27] = Induction of anti-CD3 antibodies-stimulated human T cell activation at 1.11 uM assessed fold increase in GM-CSF secretion measured by ELISA assay; format: functional, T cell line; note: reference of the scale not given here
# [28] = Induction of anti-CD3 antibodies-stimulated human T cell activation at 1 uM assessed fold increase in CD25 expression measured by ELISA assay; format: functional, T cell line; note: reference of the scale not given here
# [29] = Induction of anti-CD3/CD28 antibodies-stimulated human CD4+ T cell activation at 10 uM assessed fold increase in cell proliferation measured by flow cytometry analysis; format: functional, T cell line
# [30] = Induction of anti-CD3/CD28 antibodies-stimulated human CD4+ T cell activation at 1.11 uM assessed fold increase in cell proliferation measured by flow cytometry analysis; format: functional, T cell line
# [31] = Induction of anti-CD3/CD28 antibodies-stimulated human T cell activation at 0.3 uM assessed fold increase in IL-2 secretion measured by ELISA assay; format: functional, T cell line
# [32] = Induction of activation of human CD56+ CD3- NK cells co-cultured with human K562 cells in 1:1 ratio and assessed as increase in TNF-alpha secretion at 10 uM measured by ELISA assay; format: functional, Natural killer cell
# [33] = Induction of anti-CD3 antibodies-stimulated human exhausted T cell activation assessed fold increase in IL-2 secretion measured by ELISA assay; format: functional, T cell line; note: reference of the scale not given here
# [34] = Induction of anti-CD3/CD28 antibodies-stimulated human anergic T cell activation at 10 uM assessed fold increase in IFN-gamma secretion measured by ELISA assay; format: functional, T cell line
# [35] = Induction of allogenic human T cell activation at 10 uM assessed fold increase in cell proliferation; format: functional, T cell line
# [36] = Induction of anti-CD3 antibodies-stimulated human CD8+ T cell activation at 1.11 uM assessed fold increase in CD69 expression measured by flow cytometry analysis; format: functional, T cell line; note: reference of the scale not given here
# [37] = Induction of anti-CD3 antibodies-stimulated human exhausted T cell activation assessed fold increase in IFN-gamma secretion measured by ELISA assay; format: functional, T cell line; note: reference of the scale not given here
Compound,fold change (FC) [1],fold change (FC) [2],fold change (FC) [3],fold change (FC) [4],fold change (FC) [5],fold change (FC) [6],fold change (FC) [7],fold change (FC) [8],fold change (FC) [9],fold change (FC) [10],fold change (FC) [11],fold change (FC) [12],fold change (FC) [13],fold change (FC) [14],fold change (FC) [15],fold change (FC) [16],fold change (FC) [17],AUC (B cell),fold change (FC) [18],fold change (FC) [19],further results
"Cn1cnnc1C(F)(F)C(C)(F)c1cccc(N2Cc3c(cc(CN4CC[C@@H](F)C4)cc3C(F)(F)F)C2=O)c1 (single isomer, unassigned)",1.51,2.01,1.401,1.401,<=2,<=2,1.51,2.01,1.201,2.51,>=5,1.401,2.51,1.51,2.01,1.201,2.01,1.01,>=7.5,>=7.5,fold change (FC) [20]: 1.01; fold change (FC) [21]: 2.01; fold change (FC) [22]: >=1.001; fold change (FC) [23]: 2.01; fold change (FC) [24]: 1.51; fold change (FC) [25]: >4; fold change (FC) [26]: 2.01; fold change (FC) [27]: 1.51; fold change (FC) [28]: >=1.001; fold change (FC) [29]: >4; fold change (FC) [30]: >4; fold change (FC) [31]: 2.51; fold change (FC) [32]: >=5; fold change (FC) [33]: >3.01; fold change (FC) [34]: >4.01; fold change (FC) [35]: 2.01; fold change (FC) [36]: 1.201; fold change (FC) [37]: >1.61
Cc1cc(C(=O)Nc2cccc([C@@H](C)Cc3nncn3C)c2)nc(C2CC2)n1,1.01,1.01,1.401,1.201,<=2,<=2,1.01,2.01,1.201,<=2.5,2.01,1.401,<=2.5,<=1.5,<=1.5,1.401,2.01,1.01,2.51,1.01,fold change (FC) [20]: <=1; fold change (FC) [21]: 1.51; fold change (FC) [22]: >=1.001; fold change (FC) [23]: <=1; fold change (FC) [24]: <=1.5; fold change (FC) [25]: >4; fold change (FC) [26]: 1.01; fold change (FC) [27]: <=1.5; fold change (FC) [28]: 0.801; fold change (FC) [29]: >4; fold change (FC) [30]: >4; fold change (FC) [31]: 1.01; fold change (FC) [32]: 1.01; fold change (FC) [33]: <=2.5; fold change (FC) [34]: <=2.5; fold change (FC) [35]: <=2; fold change (FC) [36]: <=1.2; fold change (FC) [37]: <=1.4
C[C@H](Cc1nncn1C)c1cccc(NC(=O)c2cc3cc(N4CCNCC4)ccc3cn2)c1.Cl,1.01,1.01,1.401,1.201,<=2,<=2,1.01,1.51,1.201,<=2.5,2.01,1.401,<=2.5,<=1.5,1.51,1.201,2.01,1.01,2.51,1.01,fold change (FC) [20]: <=1; fold change (FC) [21]: 1.51; fold change (FC) [22]: 0.801; fold change (FC) [23]: <=1; fold change (FC) [24]: <=1.5; fold change (FC) [25]: 2.01; fold change (FC) [26]: <=1; fold change (FC) [27]: 1.51; fold change (FC) [28]: 0.801; fold change (FC) [29]: >4; fold change (FC) [30]: 3.01; fold change (FC) [31]: <=1; fold change (FC) [32]: 1.01; fold change (FC) [33]: <=2.5; fold change (FC) [34]: 2.51; fold change (FC) [35]: <=2; fold change (FC) [36]: <=1.2; fold change (FC) [37]: >1.61
